Consider seven compounds from PMC11052784 (European Journal of Drug Metabolism and Pharmacokinetics, 2024).

Read-outs that look alike come from different tables or passages of the source.

For series [1], the system named is pregnane X receptor (PXR) pathway. The series can be described thus: Induction via the pregnane X receptor pathway. Format: in vitro ADME. The conditions noted are these: data on file.
Series [2] relates to CYP3A. Put plainly: Oral contraceptive DDI study. Format: in vivo, human.
Series [3] in a line: Safety. The series is classed as in vivo, human. The conditions noted are these: coadministered with midazolam, caffeine, efavirenz, omeprazole or oral contraceptives; healthy adult participants.
Series [4] deals with CYP2B6. The note with it: after multiple doses of abrocitinib 200 mg QD.
The conditions of series [5]: after administration as tablet; cited from earlier work.
Series [6] deals with CYP2C19. The conditions noted are these: cited from earlier work.
Series [7] concerns CYP3A. Put plainly: Midazolam DDI study.
Series [8] concerns CYP1A2. The note with it: with abrocitinib 200 mg QD.
Series [9] has as its target T1, CYP2C19 (Homo sapiens, UniProt P33261). Format: in vitro ADME. The note with it: HLM.
In series [10] the test system is CYP3A4/5. The series can be described thus: Time-dependent inhibition. The conditions noted are these: HLM; for TDI of CYP3A after 30-min preincubation: incubation concentration ≥ 99.5 µM. Format: in vitro ADME, human.
The test system of series [11] is CYP1A2/2B6/2C19/3A. Put plainly: Reversible inhibition in human liver microsomes. The series is classed as in vitro ADME. The conditions noted are these: HLM.
The target in series [12] is T1, CYP2C19.
[13] abbreviates: after multiple doses of abrocitinib 200 mg QD.
The mark [14] stands for this setting: with multiple doses of abrocitinib vs LN alone.
Where [15] appears, read: multiple doses of abrocitinib 200 mg QD, Day 7 vs midazolam alone.
Where [16] appears, read: with abrocitinib 200 mg QD on Day 2 vs midazolam alone.
Setting [17] is: abrocitinib 200 mg QD with omeprazole 10 mg single dose.

T1 sequence (P33261 whole entry): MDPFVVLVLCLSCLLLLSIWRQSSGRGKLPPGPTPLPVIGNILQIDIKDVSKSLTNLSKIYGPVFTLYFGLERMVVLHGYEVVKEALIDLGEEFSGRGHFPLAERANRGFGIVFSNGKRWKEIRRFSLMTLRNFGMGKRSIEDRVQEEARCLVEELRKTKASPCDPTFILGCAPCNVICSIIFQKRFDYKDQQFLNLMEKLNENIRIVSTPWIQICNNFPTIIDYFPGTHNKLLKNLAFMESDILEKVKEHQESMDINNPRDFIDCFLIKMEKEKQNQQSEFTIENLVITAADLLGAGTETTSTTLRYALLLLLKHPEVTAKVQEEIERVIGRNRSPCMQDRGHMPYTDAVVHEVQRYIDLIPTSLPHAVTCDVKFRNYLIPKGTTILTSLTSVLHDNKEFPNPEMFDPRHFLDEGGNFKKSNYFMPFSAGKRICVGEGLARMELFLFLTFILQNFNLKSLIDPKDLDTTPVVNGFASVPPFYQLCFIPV

For `CCCS(=O)(=O)N[C@H]1C[C@@H](N(C)c2ncnc3[nH]ccc23)C1` [Abrocitinib, N-{cis-3-[Methyl(7H-pyrrolo[2,3-d]pyrimidin-4-yl)amino]cyclobutyl}propane-1-sulfo namide], in series [1], the “Induction via the PXR pathway” value is on record as “weak signal”. Further, the “Effect of abrocitinib on the pharmacokinetics of OCs” value in series [2] (setting [13]) is reported as “lack of effect”. For the same compound, the “Overall safety and tolerability” value in series [3] is “generally safe and well tolerated”. Also, in [4], the “Effect of abrocitinib on the pharmacokinetics of efavirenz” value is “lack of effect”. Also, the “Median Tmax of abrocitinib” value in [5] is listed as at most 1 h. The “Share of abrocitinib metabolism by CYP2C19” value in series [6] is “approximately 53%”. Further, the “Effect of abrocitinib on the pharmacokinetics of midazolam” value in [7] (setting [13]) is listed as “lack of effect”.
On to `Cn1c(=O)c2c(ncn2C)n(C)c1=O` [Caffeine, caffeine], for which, in series [8], the “Increase of caffeine AUCinf” value came out at 1.4 fold.
With `C#C[C@]1(O)CC[C@H]2[C@@H]3CCC4=CC(=O)CC[C@@H]4[C@H]3CC[C@@]21CC` [Levonorgestrel, levonorgestrel], in [2] (setting [14]), the “Change of adjusted geometric mean AUClast” value is “did not change” and the “Decrease of adjusted geometric mean Cmax” value is recorded as “approximately 14%”.
For the compound `CN(c1ncnc2[nH]ccc12)[C@H]1C[C@@H](NS(=O)(=O)CCCO)C1` [M1], in series [9], the “TDI of CYP2C19 in the absence of NADPH” value is on record as “weak TDI” and the “TDI of CYP2C19 in the presence of NADPH” value was “weak TDIs”. In addition, in [10], the “TDI of CYP3A in the absence of NADPH” value is “weak TDI”, the “TDI of CYP3A after 30-min preincubation” value is “weak TDI” and the “TDI of CYP3A in the presence of NADPH” value was “weak TDIs”. Also, in series [11], the “Reversible inhibition of CYP1A2/2B6/2C19/3A” value is reported as “no reversible inhibition”.
Consider `CC(O)CS(=O)(=O)N[C@H]1C[C@@H](N(C)c2ncnc3[nH]ccc23)C1` (some centres unmarked) [M2], for which, in [9], the “TDI of CYP2C19 in the absence of NADPH” value is “weak TDI” and the “TDI of CYP2C19 in the presence of NADPH” value is recorded as “weak TDIs”. Besides, in [10], the “TDI of CYP3A in the absence of NADPH” value is “weak TDI”, the “TDI of CYP3A after 30-min preincubation” value is reported as “weak TDI” and the “TDI of CYP3A in the presence of NADPH” value is given as “weak TDIs”. Besides, the “Reversible inhibition of CYP1A2/2B6/2C19/3A” value in series [11] is reported as “no reversible inhibition”.
For the compound `Cc1ncc2n1-c1ccc(Cl)cc1C(c1ccccc1F)=NC2` [Midazolam, midazolam], the “Decrease of adjusted geometric mean AUCinf of midazolam” value is recorded as “approximately 7.7%” in series [7] (setting [15]) and “approximately 15.7%” in [7] (setting [16]). In addition, the “Decrease of adjusted geometric mean Cmax of midazolam” value is given as about 6.5% in [7] (setting [15]) and about 13.7% in series [7] (setting [16]).
Regarding `COc1ccc2[nH]c([S+]([O-])Cc3ncc(C)c(OC)c3C)nc2c1` (centres unmarked) [Omeprazole, omeprazole], in series [12] (setting [17]), the “Increase of omeprazole AUCinf” value is “approximately 2.9 fold” and the “Increase of omeprazole Cmax” value is about 2.3 fold. For the same compound, in [12] (with multiple doses of abrocitinib 200 mg QD), the “Increase of omeprazole Cmax” value is listed as about 134%.
